Assay results: publication PMC5812297, “Specificity and Application of the Lantibiotic Protease NisP” (Frontiers in Microbiology, 2018)
Ends that are not written are not given here.

Tests used:
sensor bacteria = settings: only antimicrobial activity as evidence, ref Kuipers et al., [1995]; cited from earlier work
Text: It was anticipated that the binding of dehydrobutyrine in position P2′ was less important than the interaction of Ile in position P1′ with a hydrophobic groove in NisP (Siezen et al., [1995]). Some mutants like I1W were previously shown to be cut by NisP using only the antimicrobial activity as evidence (Kuipers et al., [1995]). […] We could observe that an ...

NisP = assay: Cleavage of nisin mutants by NisP in crude supernatants or purified peptide, masses by MALDI-TOF; type: biochemical, Lactococcus lactis; settings: His-tagged purified NisP, overnight 37°C, ratio 1000:1, culture pH (4.5–5.0) or pH 6.0, MALDI-TOF
Protocol: Alternatively, supernatants containing nisin mutant peptides produced after induction were divided into two fractions; one in which the pH was adjusted to 6.0 and the other one where the pH was the actual fermentation pH. They were incubated overnight at 37°C with or without His-tagged purified NisP at a ratio of 1000:1. After the incubation, the supernatants were precipitated using TCA and resuspended in 1/20 volume 0.05% acetic acid. For the mutants that were produced in lower amounts, larger volumes were induced and the peptides were purified by cationic exchange chromatography as described before and separated by reverse phase chromatography using a Jupiter 4 μm Proteo 90 Å 250 × 4.6 mm C12 analytical column (Phenomenex). The column was equilibrated in 20% organic solvent (acetonitrile 0.1% TFA) before the sample injection. It was washed for 5 min before applying a linear gradient from 20 to 50% organic solvent in 20 min. 1 μl of each collected peak was used for mass-spectrometry determination.
Mass spectrometry analysis of the samples was performed by matrix-assisted laser desorption/ionization (MALDI) time-of-flight (ToF) in an ABI Voyager DE Pro (Applied Biosystems) operating in linear mode as previously described using external calibration (van Heel et al., [2013]). Briefly, 1 μl sample was spotted, dried and washed with 5 μL Milli-Q water, on the target. Next, 1 μl of α-cyano-4-hydroxycinnamic acid 5 mg/ml (Sigma-Aldrich) was spotted on the sample.
We designed a set of nisin mutants to investigate the specificity of NisP (Figure 4). For all these mutants, supernatants were collected after induction and divided into three fractions. NisP was added to two of these fractions, one maintaining the pH of the culture (4.5–5.0) and the other fraction was adjusted to pH 6.0. The third fraction was used as an untreated control. After cleavage, the masses of the peptides were monitored by MALDI-TOF (Table 2).

engineered soluble NisP = assay: Enzyme kinetic assay of NisP cleavage of prenisin variants (Lineweaver–Burk, RP-HPLC); type: biochemical, Lactococcus lactis; settings: for Kcat/Km in comparison, in words: among the four prenisin variants, or vs literature
Protocol: In order to investigate the substrate specificity and kinetic parameters of NisP, a set of mutants of P4-P1 was created. We used wild-type prenisin (ASPR), nis-Peng (VSLR), nis-Thrombin (AVPR), and nis-Factor Xa (IEGR) as substrates. The concentration of NisP was determined by the BCA assay with bovine serum albumin as standard. The conditions of cleavage reaction were optimized with 100 mM Tris buffer containing 5 mM CaCl2 (pH 6.0). The reaction was stopped at the indicated times adding TFA to a final concentration of 1%. The reaction was performed in 100 μl with 6.5 ng/ml NisP at 37°C. 1% TFA was added to terminate the reaction at 5 different time points (5, 15, 30, 45, and 60 min). All the samples were analyzed by analytical RP-HPLC as indicated before (Mu et al., [2015]) and measuring the absorbance at 205 nm. For each substrate concentration, the initial velocity was calculated on the basis of the peak area of released nisin vs. time. The kinetic parameters were determined by fitting the calculated enzyme activities at different substrate concentrations (ranging from 1 to 25 μM) to a linear regression curve on Lineweaver–Burk double reciprocal plot (Lineweaver and Burk, [1934]).

[1] = test system: L. lactis NZ9000 (pNZnisP-8H); assay: Antimicrobial activity of purified prelantibiotics against NisP producing sensor strain; type: cell-based, Lactococcus lactis; settings: no NisP, data not shown
Protocol: Activity tests were performed by well-diffusion assay as indicated by van Heel et al. ([2013]). L. lactis NZ9000 transformed with the appropriate plasmids or Micrococcus flavus were used as sensor strains as specified in each figure. The cleavage of nisin by NisP after SDS-PAGE was monitored washing the gel according to Bhunia et al. ([1987]) and covering with an overlay of GM17 soft agar inoculated with NZ9000 (pIL3BTC pNZnisA-E3) induced with 1 ng/ml nisin. The overlay was incubated for 16 h, after which the presence of inhibition zones was evaluated.
The substrate tolerance of soluble NisP was tested using a set of different lantibiotics. These were produced using the nisin modification machinery encoded in NZ9000 (pIL3BTC pNZE3-mutant) and purified by cationic exchange chromatography. For this purpose, NZ9000 (pNZ-nisP-8H) was used as a sensor strain and tested using gallidermin (van Heel et al., [2013]) and two lantibiotics detected in the genome of Streptococcus pneumoniae, PneA1 and PneA2 encoded in the genes spr1765 and spr1766, respectively, which were heterologously expressed in L. lactis fused to the nisin leader peptide (Majchrzykiewicz et al., [2010]) (Figure 5). […] The activity was restored when a strain producing soluble NisP was employed.
Figure 5 Antimicrobial activity of purified modified lantibiotics gallidermin, 1215 and 1268 against L. lactis NZ9000 (pNZnisP-8H). […]

prenisin = settings: cell extracts of induced E. coli, ref van der Meer et al., [1993]; cited from earlier work
Text: During the production of nisin, the protease NisP is exported and anchored to the cell wall in a sortase-mediated manner. In previous attempts to characterize the specificity of NisP, the in vivo cleavage was based on the detection of the antimicrobial activity and the detection of mature lantibiotic compared to that of the prelantibiotic (van der Meer et al., [1994]). The activity in vitro could be confirmed using membrane preparations of cells expressing NisP bound to the cell wall, which limited the assays. Therefore, we engineered a soluble NisP variant that could facilitate this task. Our ...

[2] = 100 mM Tris 5 mM CaCl2 pH 6.0, 37°C, 6.5 ng/ml NisP, substrate 1 to 25 μM, Lineweaver–Burk, mean value ± standard deviation

nisin I1W: Nisin I1W mutant (MSTKDFNLDLVSVSKKDSGASPRWTSISLCTPGCKTGALMGCNMKTATCHCSIHVSK; ends and bridges not checked; cysteine pairing not given here; UniProt P13068 1-57, looked up, variant I1W)
Cleavage by NisP (earlier work) (sensor bacteria): cut by NisP
Cleavage by NisP (NisP): fully processed

WT Prenisin (ASPR): fully modified nisin with its leader peptide (ASPR cleavage site); inactive until leader is removed (MSTKDFNLDLVSVSKKDSGASPRITSISLCTPGCKTGALMGCNMKTATCHCSIHVSK; not fully specified (bridges); cysteine pairing not given here; also: fully modified nisin, modifications not placed; UniProt P13068 1-57, looked up)
Kcat/Km (catalytic efficiency) (engineered soluble NisP; 100 mM Tris 5 mM CaCl2 pH 6.0, 37°C, 6.5 ng/ml NisP): 1.71e+06 M⁻¹ s⁻¹
Km (engineered soluble NisP; 100 mM Tris 5 mM CaCl2 pH 6.0, 37°C, 6.5 ng/ml NisP, substrate 1 to 25 μM, 5-60 min, RP-HPLC 205 nm, Lineweaver–Burk, mean value ± standard deviation): 0.73 ± 0.08 µM
Kcat (engineered soluble NisP; [2]): 1.25 ± 0.07 s⁻¹
Vmax (engineered soluble NisP; [2]): 1.79 ± 0.10 µmol/mg/min
Kcat/Km in comparison, in words (engineered soluble NisP; listed as wild-type nisin): in line with previous results in literature
Kcat/Km in comparison, in words (engineered soluble NisP; listed as wild-type prenisin (ASPR)): highest catalytic efficiency
Antimicrobial activity in the absence of NisP [1]: none of the prelantibiotics tested, not even prenisin, was active
Cleavage by NisP (NisP): fully cleaved

B1: cell wall attached NisP: full length NisP expressed in E. coli (van der Meer et al., 1993) (protein, UniProt Q07596 1-682, looked up)
chain: MKKILGFLFIVCSLGLSATVHGETTNSQQLLSNNINTELINHNSNAILSSTEGSTTDSINLGAQSPAVKSTTRTELDVTGAAKTLLQTSAVQKEMKVSLQETQVSSEFSKRDSVTNKEAVPVSKDELLEQSEVVVSTSSIQKNKILDNKKKRANFVTSSPLIKEKPSNSKDASGVIDNSASPLSYRKAKEVVSLRQPLKNQKVEAQPLLISNSSEKKASVYTNSHDFWDYQWDMKYVTNNGESYALYQPSKKISVGIIDSGIMEEHPDLSNSLGNYFKNLVPKGGFDNEEPDETGNPSDIVDKMGHGTEVAGQITANGNILGVAPGITVNIYRVFGENLSKSEWVARAIRRAADDGNKVINISAGQYLMISGSYDDGTNDYQEYLNYKSAINYATAKGSIVVAALGNDSLNIQDNQTMINFLKRFRSIKVPGKVVDAPSVFEDVIAVGGIDGYGNISDFSNIGADAIYAPAGTTANFKKYGQDKFVSQGYYLKDWLFTTANTGWYQYVYGNSFATPKVSGALALVVDKYGIKNPNQLKRFLLMNSPEVNGNRVLNIVDLLNGKNKAFSLDTDKGQDDAINHKSMENLKESRDTMKQEQDKEIQRNTNNNFSIKNDFHNISKEVISVDYNINQKMANNRNSRGAVSVRSQEILPVTGDGEDFLPALGIVCISILGILKRKTKN
modifications: full-length
Activation of prenisin (prenisin): could activate prenisin
